We go through 6 compounds from US11806350B2, “Prevention and/or treatment of CNS disorders” (ILDONG PHARMACEUTICAL CO., LTD., priority 2020, dated 2023).

SMILES strings stand for the structures.

Series [1] deals with unilateral 6-hydroxydopamine (6-OHDA) lesion animal model of Parkinson's Disease. In words: Cylinder test (forelimb use asymmetry) in 6-OHDA lesioned rats. Type of series: in vivo, Wistar Han rats. As for the experimental part:
(§1) To generate animal model of Parkinson's Disease (PD), a number of 67 female Wistar Han rats of approximately 9 weeks of age received unilateral 6-hydroxydopamine (6-OHDA) lesion. To induce the 6-OHDA lesion, each of the animals received one injection with 2 μl (4 μg/μl) in the medial forebrain bundle (MFB). 6-OHDA is widely used to lesion the nigrostriatal dopaminergic system as a model of PD.
Three weeks after the injections, cylinder test for the evaluation of locomotor asymmetry was performed to determine the efficacy of the 6-OHDA lesion (4 animals died before testing). Based on the results of the cylinder test, 6-OHDA lesioned animals were further included in the study. In compound standalone testing groups (B+C), animals (n=52) were received L-DOPA (Levodopa or L-3,4-dihydroxyphenylalanine) priming (2 animals died before group allocation). […]
Cylinder test was performed on treatment days (4 days after end of L-DOPA priming) with all animals used for testing. […] Each animal was individually evaluated for 5 minutes. The number of contacts on the cylinder wall with the right paw, left and both paws simultaneously were counted. The results were given in percentage and calculating is done as follows: the test total sum of contacts on the cylinder wall with the right paw, left paw and both totaled 100%, based on this, a percentage value for each finding was calculated (Araujo, 2013).

In series [2] the target is T1, Human recombinant adenosine A1 receptors (Homo sapiens, UniProt P30542).
T1 construct: expressed in transfected cells; host or cells: CHO-K1 cells (membrane preparation)
T1 sequence (P30542 1-326): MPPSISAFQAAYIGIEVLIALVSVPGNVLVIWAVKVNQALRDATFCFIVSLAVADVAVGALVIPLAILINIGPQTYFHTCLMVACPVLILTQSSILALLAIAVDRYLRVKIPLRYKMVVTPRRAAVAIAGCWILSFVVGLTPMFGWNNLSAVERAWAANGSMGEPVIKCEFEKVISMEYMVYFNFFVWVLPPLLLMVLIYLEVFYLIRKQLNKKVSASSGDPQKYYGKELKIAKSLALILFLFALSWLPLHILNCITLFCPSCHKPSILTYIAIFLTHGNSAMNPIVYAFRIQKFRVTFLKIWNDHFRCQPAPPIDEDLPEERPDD
The series can be described thus: Human adenosine A1 receptor binding assay ([3H]DPCPX). As to conditions: membranes of CHO-K1 cells, 1 nM [3H]DPCPX, 90 minutes at 25° C.; read-out: hAl Ki. As for the experimental part: 2.1 Human Adenosine A1 Receptor Binding Assay
Test compound is weighed, dissolved in DMSO to make a stock solution of 10 mM, diluted with DMSO to prepare working solutions, then 100-fold diluted to the indicated concentrations. Human recombinant adenosine A1 receptors expressed in CHO-K1 cells were used to prepare membranes in incubation buffer (20 mM HEPES (4-(2-hydroxyethyl)-1-piperazineethanesulfonic acid) pH 7.4, 10 mM MgCl2, 100 mM NaCl). Test compound or vehicle (2.2 μL) was added in 200 μL of membranes and incubated with 20 μL of 1 nM [^3H] DPCPX (8-cyclopentyl-1,3-dipropylxanthine) for 90 minutes at 25° C. Non-specific binding was estimated in the presence of 100 μM R(−)-PIA ((R)—N-(1-methyl-2-phenylethyl)adenosine). The incubation was stopped by vacuum filtration onto 0.3% PEI (polyethylenimine) presoaked GF/B filters using a harvester followed by four washes with ice-cold 50 mM Tris-HCl, pH 7.4, and the radioactivity on GF/B filtermats counted in a scintillation counter (PerkinElmer Topcount™) to determine [^3H] DPCPX specifically bound. Final concentration of vehicle DMSO is 1%.
(§2) Data is fitted using the non-linear curve fitting routines in Meth-IQ software (ID Business Solutions Ltd., UK). IC50 is converted to Ki by Cheng-Prusoff equation: Ki=IC50/(1+[L]/KD) where [L] is concentration of radiolabeled ligand used in the assay.

Series [3] addresses T2, Human recombinant adenosine A2A receptors (Homo sapiens, UniProt P29274).
T2 construct: expressed in transfected cells; host or cells: HEK-293 cells (membrane preparation)
In words: Human adenosine A2A receptor binding assay ([3H]CGS-21680). The following applies: for Ki: membranes of HEK-293 cells, 50 nM [3H]CGS-21680, 90 minutes at 25° C., read-out: hA2A Ki; for activity as dual antagonists of both A2A and A1 receptors: summary in words of the A2A and A1 binding results of Table 2. As for the experimental part: 2.2 Human Adenosine A2A Receptor Binding Assay
Test compound is weighed, dissolved in DMSO to make a stock solution of 10 mM, diluted with DMSO to prepare working solutions, then 100-fold diluted to the indicated concentrations. Human recombinant adenosine A2A receptors expressed in HEK-293 cells were used to prepare membranes in incubation buffer (50 mM Tris-HCl, pH 7.4, 10 mM MgCl2, 1 mM EDTA, 2 U/ml Adenosine Deaminase). Test compound or vehicle (2.2 μL) was added in 200 μL of membranes and incubated with 20 μL of 50 nM [^3H] […] Non-specific binding was estimated in the presence of 50 μM NECA (5′-N-ethylcarboxamidoadenosine). The incubation was stopped by vacuum filtration onto 0.3% PEI (polyethylenimine) presoaked GF/B filters using a harvester followed by four washes with ice-cold 50 mM Tris-HCl, pH 7.4, and the radioactivity on GF/B filtermats counted in a scintillation counter (PerkinElmer TOPCOUNT™) to determine [^3H] […] Final concentration of vehicle DMSO is 1%.
as §2

Series [4] relates to unilateral 6-hydroxydopamine (6-OHDA) lesion animal model of Parkinson's Disease. The series can be described thus: Axial, limb and orolingual abnormal involuntary movement scores (ALO AIMs) in 6-OHDA lesioned, L-DOPA primed rats. The following applies: after 4 days L-DOPA priming wash out; per oral (1-30 mg/kg) or intranasal (0.3-10 mg/kg); FIG. 2B. The class given is in vivo, Wistar Han rats. The method, then:
as §1
Three weeks after the injections, cylinder test for the evaluation of locomotor asymmetry was performed to determine the efficacy of the 6-OHDA lesion (4 animals died before testing). Based on the results of the cylinder test, 6-OHDA lesioned animals were further included in the study. In compound standalone testing groups (B+C), animals (n=52) were received L-DOPA (Levodopa or L-3,4-dihydroxyphenylalanine) priming (2 animals died before group allocation). Animals (n=11) not showing symptoms were eliminated without any further administration of test compounds or tissue collection. […]
ALO test was performed on treatment days (4 days after end of L-DOPA priming) with all animals used for the compound stand alone testing. ALO AIMs were scored starting 5 min […] after the vehicle, L-DOPA/Benserazide and IN administration of the test compound, and 2h (+/−5 min) after PO administration of the test compound and every 20 min thereafter for 3 h. […]
ALO AIMs were scored for 1 min, every 20 min for 180 min. […]

T2 sequence (P29274 whole entry): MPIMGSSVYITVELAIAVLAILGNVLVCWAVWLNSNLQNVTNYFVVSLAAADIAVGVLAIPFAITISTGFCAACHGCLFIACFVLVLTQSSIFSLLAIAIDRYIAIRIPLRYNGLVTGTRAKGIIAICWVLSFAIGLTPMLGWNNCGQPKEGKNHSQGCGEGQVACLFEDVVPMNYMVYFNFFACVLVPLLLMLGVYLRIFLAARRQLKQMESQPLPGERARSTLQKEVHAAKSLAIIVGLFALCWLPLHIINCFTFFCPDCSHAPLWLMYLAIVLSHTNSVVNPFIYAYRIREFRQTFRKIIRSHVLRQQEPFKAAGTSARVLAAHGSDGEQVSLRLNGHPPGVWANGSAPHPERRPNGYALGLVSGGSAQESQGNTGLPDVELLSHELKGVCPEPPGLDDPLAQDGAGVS

As usually defined, the Ki is the equilibrium dissociation constant of an inhibitor or competing ligand from its target. Turning to `N#Cc1cccc(-c2nc(N)nc3c2cnn3Cc2ccc(N)c(C(F)(F)F)c2)c1` [Compound 210, 3-(6-amino-1-(4-amino-3-(trifluoromethyl)benzyl)-1H-pyrazolo[3,4-d]pyrimidine-4-yl)benzonitrile], the “contralateral limb usage in cylinder test” value in series [1] (IN route and PO route, compared to the vehicle treated group, FIGS. 3A, 3B) is given as “concentration related trend towards increased contralateral limb usage”. Besides, the “contralateral limb usage in cylinder test, intranasal compared to PO administration” value in series [1] (intranasal administration compared to the PO administration group) is given as “more pronounced concentration related trend”. Also, the Ki is no more than 100 nM in series [2] and less than 20 nM in series [3]. In addition, the “L-DOPA/Benserazide induced dyskinesia-like side effects (ALO AIM scores)” value in series [4] is on record as “did not induce L-DOPA/Benserazide induced dyskinesia-like side effects”.
As to `N#Cc1cncc(-c2nc(N)nc3c2cnn3Cc2ccc(N)cc2F)c1` [Compound 221, 5-[6-amino-1-[(4-amino-2-fluoro-phenyl)methyl]pyrazolo[3,4-d]pyrimidine-4-yl]pyridine-3-carbonitrile], the values for the inhibitory constant (Ki) in series [2] and in series [3] were greater than 10000 nM and 1000 to 5000 nM, respectively.
Regarding `N#Cc1cccc(-c2nc(N)nc3c2cnn3Cc2ccc(N)cc2F)c1F` [Compound 203, 3-(6-amino-1-(4-amino-2-fluorobenzyl)-1H-pyrazolo[3,4-d]pyrimidine-4-yl)-2-fluorobenzonitrile], the Ki in series [2] was no more than 100 nM. In addition, in series [3], the inhibitory constant (Ki) is less than 20 nM; the “activity as dual antagonists of both A2A and A1 receptors” value is “potent activity as dual antagonists”.
Take `Cc1cc(Cn2ncc3c(-c4ccnc(C#N)c4)nc(N)nc32)ccc1N` [Compound 230, 4-(6-amino-1-(4-amino-3-methylbenzyl)-1H-pyrazolo[3,4-d]pyrimidine-4-yl)picolinonitrile]: the figures for the Ki in series [2] and in series [3] were greater than 10000 nM and 1000 to 5000 nM, respectively.
Consider `N#Cc1cccc(-c2nc(N)nc3c2cnn3Cc2c(F)cccc2F)c1F` [Compound 213, 3-(6-amino-1-(2,6-difluorobenzyl)-1H-pyrazolo[3,4-d]pyrimidine-4-yl)-2-fluorobenzonitrile], for which the Ki in series [2] was no more than 100 nM. Further, in series [3], the Ki was less than 20 nM; the “activity as dual antagonists of both A2A and A1 receptors” value was “potent activity as dual antagonists”.
Regarding `Cc1cc(Cn2ncc3c(-c4cccc(C#N)c4)nc(N)nc32)ccc1N` [Compound 204, 3-(6-amino-1-(4-amino-3-methylbenzyl)-1H-pyrazolo[3,4-d]pyrimidine-4-yl)benzonitrile], the Ki is 100 to 1000 nM in series [2] and less than 20 nM in series [3].
